Experimental data taken from patent US9952300B2, “Dynamic contrast enhanced MRI method and agents for the assessment of the macromolecular transport within pathologic tissues” (BRACCO IMAGING S.P.A., priority 2012, dated 2018).
“And” between values parts separate entries of the source, which are not always exact repeats. Equal values may be shown once.

Tests used:
Human Serum Albumin = Human Serum Albumin (Homo sapiens, UniProt P02768); conditions: literature; cited from earlier work
[1] = tested on: PC-3 human prostate adenocarcinoma tumor; test: DCE-MRI of contrast agent kinetics in PC-3 tumors of Axitinib- or vehicle-treated mice (Example 3); format: in vivo, NCR athymic nude mice; conditions: contrast agent 100 μmol/kg i.v., one value per animal
Excerpt: The comparative test has been performed using NCR athymic nude mice implanted with PC-3 cells (a human prostate cancer line) and treated with Axitinib®, a VEGFRs inhibitor, (to modulate the tumor vascular permeability) by a protocol which timing is for instance schematized in FIG. 1. Scope of the test was to compare the image-based analysis of the albumin distribution in a human tumor model as extracted from the analysis of a time-serie of MRI images (with spatial resolution of around 110 μm) acquired with the method of the invention after injection of B22956/1 as contrast agent, and the distribution of FITC-BSA (Fluorescent isothiocyanate Bovine Serum Albumin) albumin inside and outside vessels histologically determined from fluorescent microscopy images on a scale of microns.
In particular, the trans-endothelial permeability (K^Trans) and the fractional plasma volume (fPV) were calculated from dynamic MR data by application of a bi-compartmental pharmacokinetic model, while the Initial Area Under the Curve (IAUCT) was calculated in several time windows, typically comprised between the contrast agent administration and the end of the MRI acquisition. The macromolecular penetration in tumors was, then, probed by fluorescently labelled Bovine Serum Albumin administered via tail vein after the last MRI session. Microscopic images were used to quantify the percentage of area stained by fluorescent albumin in the tumor, as a measure of the blood vessel density, using an automatic thresholding method. The albumin extravasation in the tumor extravascular space was assessed based on the fluorescence found out of the blood vessels from histological samples taken from both of tumor rim and core, for instance as schematized in FIG. 2. In particular, the albumin florescence was averaged over all pixels at a given distance from the nearest vessel and stored as a function of distance from the vessels walls, by use of an optimized procedure, for instance schematized in FIG. 3, providing both a quantification of the availability of the albumin in the extravascular space of the concerned tumor, namely the amount of the extravasated FITC-Albumin, and the decay of its concentration over the distance x from a nearest vessel, or, in other words, its actual distribution and dilution within the extracellular spaces (for instance as schematized in FIG. 4).
Human prostate adenocarcinoma cells (PC-3) were supplied by ATCC (American Type Culture Collection) and grown in Hams F-12 medium supplemented with 10% foetal bovine serum, 2 mM glutamine, 100 IU/mL penicillin and 100 μg/mL streptomycin (all from Lonza, Verviers, Belgium). […] Tumour development was followed by palpation and measured by calliper every 2-3 days until the end of the experiment. […]

tumor tissues = conditions: literature (Maeda et al.); cited from earlier work

Human Serum Albumin, sequence (P02768 25-609): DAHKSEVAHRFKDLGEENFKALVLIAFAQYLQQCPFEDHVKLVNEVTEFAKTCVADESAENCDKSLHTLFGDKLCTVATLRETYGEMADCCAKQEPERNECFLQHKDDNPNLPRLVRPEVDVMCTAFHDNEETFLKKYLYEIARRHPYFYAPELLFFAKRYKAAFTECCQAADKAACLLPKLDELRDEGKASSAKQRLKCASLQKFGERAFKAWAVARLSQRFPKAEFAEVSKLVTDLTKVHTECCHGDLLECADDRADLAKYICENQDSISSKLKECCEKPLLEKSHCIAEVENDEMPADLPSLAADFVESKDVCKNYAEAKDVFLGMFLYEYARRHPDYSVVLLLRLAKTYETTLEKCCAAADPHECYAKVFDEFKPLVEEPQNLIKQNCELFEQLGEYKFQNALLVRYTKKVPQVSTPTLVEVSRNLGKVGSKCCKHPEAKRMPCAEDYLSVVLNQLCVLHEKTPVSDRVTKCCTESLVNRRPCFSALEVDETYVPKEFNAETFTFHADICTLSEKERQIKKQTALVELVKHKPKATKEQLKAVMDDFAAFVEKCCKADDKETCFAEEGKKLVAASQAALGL

O=C([O-])CN(CCN(CC(=O)[O-])C[C@H](COP(=O)([O-])OC1CCC(c2ccccc2)(c2ccccc2)CC1)N(CC(=O)[O-])CC(=O)[O-])CC(=O)[O-].[Gd+3].[H+].[H+].[H+] [Gadofosveset, reference compound]
non-covalent binding with Human Serum Albumin (Human Serum Albumin): about 90%

CNC[C@H](O)[C@@H](O)[C@H](O)[C@H](O)CO.CNC[C@H](O)[C@@H](O)[C@H](O)[C@H](O)CO.O=C([O-])CN(CCN(CC(=O)[O-])CC(=O)O)CCN(CC(=O)O)C(COCc1ccccc1)C(=O)[O-].[Gd+3] (stereo not shown) [MultiHance, reference compound]
kTrans (Transfer Constant) ([1]; tumor core): 3.63 mL\(min × g) × 100 and 1.02 mL\(min × g) × 100 and 2.86 mL\(min × g) × 100 and 3.57 mL\(min × g) × 100 and 2.54 mL\(min × g) × 100 and 1.53 mL\(min × g) × 100 and 0.82 mL\(min × g) × 100 and 3.15 mL\(min × g) × 100 and 4.46 mL\(min × g) × 100 and 1.08 mL\(min × g) × 100 and 1.63 mL\(min × g) × 100 and 3.19 mL\(min × g) × 100 and 2.6 mL\(min × g) × 100 and 4.07 mL\(min × g) × 100 and 1.06 mL\(min × g) × 100 | kTrans (Transfer Constant) ([1]; tumor rim): 8.14 mL\(min × g) × 100 and 3.59 mL\(min × g) × 100 and 3.81 mL\(min × g) × 100 and 4.51 mL\(min × g) × 100 and 4.22 mL\(min × g) × 100 and 4.44 mL\(min × g) × 100 and 3.23 mL\(min × g) × 100 and 4.78 mL\(min × g) × 100 and 6.14 mL\(min × g) × 100 and 1.74 mL\(min × g) × 100 and 5.23 mL\(min × g) × 100 (2×) and 5.82 mL\(min × g) × 100 and 3.76 mL\(min × g) × 100 and 2.88 mL\(min × g) × 100

B1: SMANCS (conjugate, UniProt P0A3R9 35-147, looked up)
Neocarzinostatin: AAPTATVTPSSGLSDGTVVKVAGAGLQAGTAYDVGQCAWVDTGVLACNPADFSSVTADANGSASTSLTVRRSFEGFLFDGTRWGTVDCTTAACQVGLSDAAGNGPEGVAISFN
modifications: styrene-maleic acid copolymer conjugate
spontaneous accumulation within tumor tissues versus normal tissues and organs (tumor tissues): up to 200 times
